Species on record: Rattus norvegicus
Assay: Open TG-GATES - Regimen: Single
Type: toxicity, organism-based, Sprague-Dawley
Design: regimen Single, gender Male, age 6 weeks
Conditions: in vivo, po, 300 mg/kg, route gavage, dose level Middle; for APTT / Bas / Eos / Fbg / Hb / Ht / Lym / MCH / MCHC / MCV / Mono / Neu / PT / Plat / RBC / Ret / WBC: tissue Blood; for KIDNEY_L / KIDNEY_R / KIDNEY_TOTAL: tissue Kidney; for LIVER: tissue Liver; for A/G / ALP / ALT / AST / BUN / CRE / Ca / Cl / DBIL / GLC / IP / K / LDH / Na / PL / RALB / TBIL / TC / TG / TP / gamma-GTP: tissue Plasma

With `C[C@H]1O[C@H](O[C@H]2[C@H](O)[C@@H](O)[C@@H](O[C@H]3[C@H](O)[C@@H](O)C(O)O[C@@H]3CO)O[C@@H]2CO)[C@H](O)[C@@H](O)[C@@H]1N[C@H]1C=C(CO)[C@@H](O)[C@H](O)[C@H]1O` (some centres not stated) [ACARBOSE] the TERMINAL_BW (3 h) was 199.8 g, the APTT (3 h) was 16.9 s and the Bas (3 h) was 0%. It also gave an Eos (3 h) of 0.8%, a Fbg (3 h) of 290.6 mg/dL and a Hb (3 h) of 13.5 g/dL. For the same molecule, the Ht (3 h) was 41.4%, the Lym (3 h) was 77.8% and the MCH (3 h) was 21.2 pg. The MCHC (3 h) was 32.6%, the MCV (3 h) was 65.1 fL and the Mono (3 h) was 2.8%. It also gave a Neu (3 h) of 17.8%, a PT (3 h) of 13.4 s and a Plat (3 h) of 115.1 x10_4/uL. It also gave an RBC (3 h) of 636 x10_4/ul, a Ret (3 h) of 8.7% and a WBC (3 h) of 82.6 x10_2/uL. For the same molecule, the KIDNEY_L (3 h) was 0.9 g, the KIDNEY_R (3 h) was 0.9 g and the KIDNEY_TOTAL (3 h) was 1.9 g. The LIVER (3 h) was 9 g, the A/G (3 h) was 0.9 and the ALP (3 h) was 1420.8 IU/L. For the same molecule, the ALT (3 h) was 35.6 IU/L, the AST (3 h) was 75.4 IU/L and the BUN (3 h) was 9.8 mg/dL. It also gave a CRE (3 h) of 0.2 mg/dL, a Ca (3 h) of 10.9 mg/dL and a Cl (3 h) of 104.6 meq/L. It also gave a DBIL (3 h) of 0.004 mg/dL, a GLC (3 h) of 172.4 mg/dL and an IP (3 h) of 10 mg/dL. The K (3 h) was 4 meq/L, the LDH (3 h) was 67.8 IU/L and the Na (3 h) was 141.2 meq/L. The PL (3 h) was 140 mg/dL, the RALB (3 h) was 2.5 g/dL and the TBIL (3 h) was 0.066 mg/dL. It also gave a TC (3 h) of 79.8 mg/dL, a TG (3 h) of 51.6 mg/dL and a TP (3 h) of 5.2 g/dL. For the same molecule, the gamma-GTP (3 h) was 1.2 IU/L, the TERMINAL_BW (6 h) was 198.7 g and the APTT (6 h) was 17 s. The Bas (6 h) was 0%, the Eos (6 h) was 0.8% and the Fbg (6 h) was 290.6 mg/dL. For the same molecule, the Hb (6 h) was 13.2 g/dL, the Ht (6 h) was 40.6% and the Lym (6 h) was 75.8%. The MCH (6 h) was 20.8 pg, the MCHC (6 h) was 32.4% and the MCV (6 h) was 64 fL. The Mono (6 h) was 3%, the Neu (6 h) was 19.6% and the PT (6 h) was 13.5 s. For the same molecule, the Plat (6 h) was 124.8 x10_4/uL, the RBC (6 h) was 635 x10_4/ul and the Ret (6 h) was 8.7%. It also gave a WBC (6 h) of 86.3 x10_2/uL, a KIDNEY_L (6 h) of 0.9 g and a KIDNEY_R (6 h) of 0.9 g. For the same molecule, the KIDNEY_TOTAL (6 h) was 1.8 g, the LIVER (6 h) was 8.2 g and the A/G (6 h) was 0.9. For the same molecule, the ALP (6 h) was 1441 IU/L, the ALT (6 h) was 35 IU/L and the AST (6 h) was 70 IU/L. The BUN (6 h) was 9.6 mg/dL, the CRE (6 h) was 0.2 mg/dL and the Ca (6 h) was 10.8 mg/dL. For the same molecule, the Cl (6 h) was 104 meq/L, the DBIL (6 h) was 0.004 mg/dL and the GLC (6 h) was 160.4 mg/dL. It also gave an IP (6 h) of 10.5 mg/dL, a K (6 h) of 4 meq/L and an LDH (6 h) of 57 IU/L. The Na (6 h) was 141.4 meq/L, the PL (6 h) was 133.6 mg/dL and the RALB (6 h) was 2.5 g/dL. The TBIL (6 h) was 0.058 mg/dL, the TC (6 h) was 71 mg/dL and the TG (6 h) was 38.6 mg/dL. For the same molecule, the TP (6 h) was 5.2 g/dL, the gamma-GTP (6 h) was 1 IU/L and the TERMINAL_BW (9 h) was 195.2 g. It also gave an APTT (9 h) of 17 s, a Bas (9 h) of 0.4% and an Eos (9 h) of 0.8%. It also gave a Fbg (9 h) of 292.8 mg/dL, a Hb (9 h) of 13.5 g/dL and a Ht (9 h) of 42%. The Lym (9 h) was 80.4%, the MCH (9 h) was 20.7 pg and the MCHC (9 h) was 32%. For the same molecule, the MCV (9 h) was 64.8 fL, the Mono (9 h) was 2.2% and the Neu (9 h) was 15.6%. It also gave a PT (9 h) of 13.4 s, a Plat (9 h) of 119.8 x10_4/uL and an RBC (9 h) of 650.2 x10_4/ul. For the same molecule, the Ret (9 h) was 8.7%, the WBC (9 h) was 84.7 x10_2/uL and the KIDNEY_L (9 h) was 1 g. The KIDNEY_R (9 h) was 0.9 g, the KIDNEY_TOTAL (9 h) was 1.9 g and the LIVER (9 h) was 7.7 g. The A/G (9 h) was 0.9, the ALP (9 h) was 1353.2 IU/L and the ALT (9 h) was 36.8 IU/L. For the same molecule, the AST (9 h) was 76 IU/L, the BUN (9 h) was 8.6 mg/dL and the CRE (9 h) was 0.2 mg/dL. It also gave a Ca (9 h) of 10.3 mg/dL, a Cl (9 h) of 105.4 meq/L and a DBIL (9 h) of 0 mg/dL. It also gave a GLC (9 h) of 169.8 mg/dL, an IP (9 h) of 10.7 mg/dL and a K (9 h) of 3.8 meq/L. It also gave an LDH (9 h) of 61 IU/L, a Na (9 h) of 141.4 meq/L and a PL (9 h) of 131.4 mg/dL. The RALB (9 h) was 2.4 g/dL, the TBIL (9 h) was 0.06 mg/dL and the TC (9 h) was 77 mg/dL. It also gave a TG (9 h) of 36.2 mg/dL, a TP (9 h) of 5.2 g/dL and a gamma-GTP (9 h) of 1.2 IU/L. It also gave a TERMINAL_BW (24 h) of 210.8 g, an APTT (24 h) of 17.1 s and a Bas (24 h) of 0%. For the same molecule, the Eos (24 h) was 1%, the Fbg (24 h) was 248.4 mg/dL and the Hb (24 h) was 13.1 g/dL. It also gave a Ht (24 h) of 40.2%, a Lym (24 h) of 76% and an MCH (24 h) of 21.3 pg. For the same molecule, the MCHC (24 h) was 32.6%, the MCV (24 h) was 65.2 fL and the Mono (24 h) was 3.4%. For the same molecule, the Neu (24 h) was 18.8%, the PT (24 h) was 13.3 s and the Plat (24 h) was 121 x10_4/uL. The RBC (24 h) was 617.4 x10_4/ul, the Ret (24 h) was 7.8% and the WBC (24 h) was 102.2 x10_2/uL. For the same molecule, the KIDNEY_L (24 h) was 0.9 g, the KIDNEY_R (24 h) was 0.9 g and the KIDNEY_TOTAL (24 h) was 1.8 g. For the same molecule, the LIVER (24 h) was 9.9 g, the A/G (24 h) was 0.9 and the ALP (24 h) was 1736 IU/L. The ALT (24 h) was 42.2 IU/L, the AST (24 h) was 71.8 IU/L and the BUN (24 h) was 13.4 mg/dL. For the same molecule, the CRE (24 h) was 0.2 mg/dL, the Ca (24 h) was 10.9 mg/dL and the Cl (24 h) was 104.8 meq/L. The DBIL (24 h) was 0.012 mg/dL, the GLC (24 h) was 176.4 mg/dL and the IP (24 h) was 8 mg/dL. For the same molecule, the K (24 h) was 3.9 meq/L, the LDH (24 h) was 60.6 IU/L and the Na (24 h) was 142.6 meq/L. It also gave a PL (24 h) of 134.8 mg/dL, an RALB (24 h) of 2.6 g/dL and a TBIL (24 h) of 0.062 mg/dL. For the same molecule, the TC (24 h) was 71.2 mg/dL, the TG (24 h) was 74 mg/dL and the TP (24 h) was 5.4 g/dL. For the same molecule, the gamma-GTP (24 h) was 1 IU/L.
